The values below are quoted from earlier work in patent publication US6607711B2, “Mouth hygienic composition for the treatment of halitosis” (priority 1997, dated 2003).

The conditions of this series: amount in grams of the compound which can be dissolved per gram solvent (H2O).

Regarding `[Cl-].[Cl-].[Zn+2]` [Zinc chloride], the “Solubility (g/g H2O)” value is 4.3 g/g H2O.
